Experiments:
[1] = target: T1, human TDO (TDO-expressing HEK293 cells) (Homo sapiens, UniProt P48775); assay: Cell based kynurenine assay, TDO-expressing HEK293 cell clones; conditions: TDO-expressing HEK293 cells, 24 hours incubation; geometric mean; read-out: HEK293 TDO Kynurenine GMean IC50 (μM) (Cellular Assay)
T1 construct: expressed in transfected cells
Method in brief: (§1)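 HEK293 clones stably expressing human IDO1 or human TDO (CMV promoter), 2.5×10^4 cells/well, given serial compound dilutions for 24 h. Kynurenine measured in supernatant; inhibition relative to cell/0.2% DMSO and media-only controls. IC50 by nonlinear regression.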

[2] = target: T2, Human Tryptophan 2,3-dioxygenase (TDO) (Homo sapiens, UniProt P48775); assay: Human TDO enzymatic assay (kynurenine level); format: biochemical; conditions: 1 nM TDO, 350 μM L-Trp; geometric mean; read-out: TDO GMean: IC50 (μM) (Biochemical Assay)
T2 construct: His tag (N); made in house; host or cells: E. coli
T2 sequence (P48775 whole entry): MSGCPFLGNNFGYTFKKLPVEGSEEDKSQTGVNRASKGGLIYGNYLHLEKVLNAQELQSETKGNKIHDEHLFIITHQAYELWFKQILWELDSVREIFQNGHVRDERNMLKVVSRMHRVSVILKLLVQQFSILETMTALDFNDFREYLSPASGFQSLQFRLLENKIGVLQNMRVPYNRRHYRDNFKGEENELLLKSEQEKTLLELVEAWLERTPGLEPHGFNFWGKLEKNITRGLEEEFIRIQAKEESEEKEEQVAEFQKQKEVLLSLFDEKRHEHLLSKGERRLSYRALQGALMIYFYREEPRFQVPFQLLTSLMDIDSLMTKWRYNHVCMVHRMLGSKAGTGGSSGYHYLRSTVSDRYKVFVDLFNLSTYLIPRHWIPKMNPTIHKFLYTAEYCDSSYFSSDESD
Method in brief: (§2)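 N-His human IDO (6 nM, 10 μM L-Trp, 5 μM methylene blue, 20 min) or TDO (1 nM, 350 μM L-Trp, 0.4 μM methylene blue, 70 min) run at room temp in pH 6.5 phosphate with ascorbate, catalase, Tween 20. TCA stop, 30 min 50 °C converts N-formylkynurenine to kynurenine; IC50 by nonlinear regression.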

[3] = target: T3, human IDO (IDO1-expressing HEK293 cells) (Homo sapiens, UniProt P14902); assay: Cell based kynurenine assay, IDO1-expressing HEK293 cell clones; conditions: IDO1-expressing HEK293 cells, 24 hours incubation; geometric mean; read-out: HEK293 IDO1 Kynurenine GMean IC50 (μM) (Cellular Assay)
T3 construct: expressed in transfected cells
T3 sequence (P14902 whole entry): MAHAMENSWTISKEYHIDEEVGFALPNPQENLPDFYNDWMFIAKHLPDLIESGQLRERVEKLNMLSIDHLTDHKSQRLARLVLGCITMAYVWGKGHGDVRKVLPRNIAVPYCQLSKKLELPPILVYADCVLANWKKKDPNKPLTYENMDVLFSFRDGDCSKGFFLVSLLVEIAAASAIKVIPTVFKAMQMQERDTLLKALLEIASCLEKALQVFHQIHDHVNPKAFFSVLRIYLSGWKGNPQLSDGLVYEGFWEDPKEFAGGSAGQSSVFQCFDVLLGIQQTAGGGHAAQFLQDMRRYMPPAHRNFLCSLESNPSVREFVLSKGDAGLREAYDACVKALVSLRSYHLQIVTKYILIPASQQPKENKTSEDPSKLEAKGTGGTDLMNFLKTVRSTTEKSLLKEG
Method in brief: as §1

[4] = target: T4, Human Indoleamine 2,3-dioxygenase (IDO) (Homo sapiens, UniProt P14902); assay: Human IDO enzymatic assay (kynurenine level); format: biochemical; conditions: 6 nM IDO, 10 μM L-Trp; geometric mean; read-out: IDO1 GMean: IC50 (μM) (Biochemical Assay)
T4 construct: His tag (N); made in house; host or cells: E. coli
T4 sequence (P14902 whole entry): as above
Method in brief: as §2

T1 sequence (P48775 whole entry): as the sequence (P48775 whole entry) above

Row | IC50 [1] [µM] | IC50 [2] [µM] | IC50 [3] [µM] | IC50 [4] [µM] | SMILES
1 | 0.0001 to 10 | 0.0001 to 10 | 0.0001 to 10 | 0.0001 to 10 | O=C(Nc1cccc(F)c1)N1CCC(C(F)(F)C(O)c2cc(Cl)cc3cn[nH]c23)CC1 (stereo not shown) [Compound P-0152, 4-(2-(5-chloro-1H-indazol-7-yl)-1,1-difluoro-2-hydroxyethyl)-N-(3-fluorophenyl)piperidine-1-carboxamide]
2 | 0.0001 to 10 | 0.0001 to 10 | 0.0001 to 10 | 0.0001 to 10 | O=C(Nc1ccc(C(F)(F)F)cc1)N1CCC(C(F)(F)C(O)c2cc(Cl)cc3cn[nH]c23)CC1 (stereo not shown) [Compound P-0153, 4-(2-(5-chloro-1H-indazol-7-yl)-1,1-difluoro-2-hydroxyethyl)-N-(4-(trifluoromethyl)phenyl)piperidine-1-carboxamide]
3 | 0.0001 to 10 | 0.0001 to 10 | 0.0001 to 10 | 0.0001 to 10 | O=C(Nc1cccc(C(F)(F)F)c1)N1CCC(C(F)(F)C(O)c2cc(Cl)cc3cn[nH]c23)CC1 (stereo not shown) [Compound P-0154, 4-(2-(5-chloro-1H-indazol-7-yl)-1,1-difluoro-2-hydroxyethyl)-N-(3-(trifluoromethyl)phenyl)piperidine-1-carboxamide]
4 | 0.0001 to 10 | 0.0001 to 10 | 0.0001 to 10 | 0.0001 to 10 | COC(=O)N1CCC(C2(C(O)c3cc(Cl)cc4cn[nH]c34)CC2)CC1 (stereo not shown) [Compound P-0155, methyl 4-(1-((5-chloro-1H-indazol-7-yl)(hydroxy)methyl)cyclopropyl)piperidine-1-carboxylate]
5 | 0.0001 to 10 | 0.0001 to 10 | 0.0001 to 10 | 0.0001 to 10 | NC(=O)N1CCC(C2(C(O)c3cc(Cl)cc4cn[nH]c34)CC2)CC1 (stereo not shown) [Compound P-0156, 4-(1-((5-chloro-1H-indazol-7-yl)(hydroxy)methyl)cyclopropyl)piperidine-1-carboxamide]
6 | 0.0001 to 10 | 0.0001 to 10 | 0.0001 to 10 | 0.0001 to 10 | O=C(Nc1ccc(F)cc1)N1CCC(C2(C(O)c3cc(Cl)cc4cn[nH]c34)CC2)CC1 (stereo not shown) [Compound P-0157, 4-(1-((5-chloro-1H-indazol-7-yl)(hydroxy)methyl)cyclopropyl)-N-(4-fluorophenyl)piperidine-1-carboxamide]
7 | 0.0001 to 10 | 0.0001 to 10 | 0.0001 to 10 | 0.0001 to 10 | CS(=O)(=O)N1CCC(C2(C(O)c3cc(Cl)cc4cn[nH]c34)CC2)CC1 (stereo not shown) [Compound P-0158, (5-chloro-1H-indazol-7-yl)(1-(1-(methylsulfonyl)piperidin-4-yl)cyclopropyl)methanol]
8 | 0.0001 to 10 | 0.0001 to 10 | 0.0001 to 10 | 0.0001 to 10 | CC(=O)N1CCC(C2(C(O)c3c(F)c(Cl)cc4cn[nH]c34)CC2)CC1 (stereo not drawn) [Compound P-0159, 1-(4-(1-((5-chloro-6-fluoro-1H-indazol-7-yl)(hydroxy)methyl)cyclopropyl)piperidin-1-yl)ethan-l-one]
9 | 0.0001 to 10 | 0.0001 to 10 | 0.0001 to 10 | 0.0001 to 10 | COC(=O)N1CCC(C2(C(O)c3c(F)c(Cl)cc4cn[nH]c34)CC2)CC1 (stereo not shown) [Compound P-0160, methyl 4-(1-((5-chloro-6-fluoro-1H-indazol-7-yl)(hydroxy)methyl)cyclopropyl)piperidine-1-carboxylate]
10 | 0.0001 to 10 | 0.0001 to 10 | 0.0001 to 10 | 0.0001 to 10 | NC(=O)N1CCC(C2(C(O)c3c(F)c(Cl)cc4cn[nH]c34)CC2)CC1 (stereo not shown) [Compound P-0161, 4-(1-((5-chloro-6-fluoro-1H-indazol-7-yl)(hydroxy)methyl)cyclopropyl)piperidine-1-carboxamide]
11 | 0.0001 to 10 | 0.0001 to 10 | 0.0001 to 10 | 0.0001 to 10 | CNC(=O)N1CCC(C2(C(O)c3c(F)c(Cl)cc4cn[nH]c34)CC2)CC1 (stereo not shown) [Compound P-0162, 4-(1-((5-chloro-6-fluoro-1H-indazol-7-yl)(hydroxy)methyl)cyclopropyl)-N-methylpiperidine-1-carboxamide]
12 | 0.0001 to 10 | 0.0001 to 10 | 0.0001 to 10 | 0.0001 to 10 | O=C(Nc1ccc(F)cc1)N1CCC(C2(C(O)c3c(F)c(Cl)cc4cn[nH]c34)CC2)CC1 (stereo not shown) [Compound P-0164, 4-(1-((5-chloro-6-fluoro-1H-indazol-7-yl)(hydroxy)methyl)cyclopropyl)-N-(4-fluorophenyl)piperidine-1-carboxamide]
13 | 0.0001 to 10 | 0.0001 to 10 | 0.0001 to 10 | 0.0001 to 10 | CS(=O)(=O)N1CCC(C2(C(O)c3c(F)c(Cl)cc4cn[nH]c34)CC2)CC1 (stereo not shown) [Compound P-0165, (5-chloro-6-fluoro-1H-indazol-7-yl)(1-(1-(methylsulfonyl)piperidin-4-yl)cyclopropyl)methanol]
14 | 0.0001 to 10 | 0.0001 to 10 | 0.0001 to 10 | 0.0001 to 10 | Nc1nc(C(=O)N2CCC(C3(C(O)c4cc(Cl)cc5cn[nH]c45)CC3)CC2)cs1 (stereo not shown) [Compound P-0166, (2-aminothiazol-4-yl)(4-(1-((5-chloro-1H-indazol-7-yl)(hydroxy)methyl)cyclopropyl)piperidin-1-yl)methanone]
15 | 0.0001 to 10 | 0.0001 to 10 | 0.0001 to 10 | 0.0001 to 10 | CC(C)(C1CCN(C(=O)Nc2ccc(F)cc2)CC1)C(O)c1cc(Cl)cc2cn[nH]c12 (stereo not shown) [Compound P-0167, 4-(1-(5-chloro-1H-indazol-7-yl)-1-hydroxy-2-methylpropan-2-yl)-N-(4-fluorophenyl)piperidine-1-carboxamide]
16 | 0.0001 to 10 | 0.0001 to 10 | 0.0001 to 10 | 0.0001 to 10 | CC(C)(C1CCN(C(=O)Nc2ccc(C#N)cc2)CC1)C(O)c1cc(Cl)cc2cn[nH]c12 (stereo not shown) [Compound P-0168, 4-(1-(5-chloro-1H-indazol-7-yl)-1-hydroxy-2-methylpropan-2-yl)-N-(4-cyanophenyl)piperidine-1-carboxamide]
17 | 0.0001 to 10 | 0.0001 to 10 | 0.0001 to 10 | 0.0001 to 10 | CNC(=O)N1CCC(C(C)(C)C(O)c2cc(Cl)cc3[nH]ncc23)CC1 (stereo not shown) [Compound P-0169, 4-(1-(6-chloro-1H-indazol-4-yl)-1-hydroxy-2-methylpropan-2-yl)-N-methylpiperidine-1-carboxamide]
18 | > 10 | 0.0001 to 10 | > 10 | 0.0001 to 10 | CCC(=O)NC(C)(C)CC(O)c1cc(Cl)cc2cn[nH]c12 (stereo not shown) [Compound P-0170, N-(4-(5-chloro-1H-indazol-7-yl)-4-hydroxy-2-methylbutan-2-yl)propionamide]
19 | 0.0001 to 10 | 0.0001 to 10 | > 10 | 0.0001 to 10 | CC(C)(C1CCN(S(C)(=O)=O)CC1)C(O)c1cc(Cl)cc2[nH]ncc12 (stereo not shown) [Compound P-0171, 1-(6-chloro-1H-indazol-4-yl)-2-methyl-2-(1-(methylsulfonyl)piperidin-4-yl)propan-1-ol]
20 | 0.0001 to 10 | 0.0001 to 10 | 0.0001 to 10 | 0.0001 to 10 | CC(=O)N1CCC(C(C)(C)C(O)c2cc(Cl)cc3[nH]ncc23)CC1 (stereo not shown) [Compound P-0172, 1-(4-(1-(6-chloro-1H-indazol-4-yl)-1-hydroxy-2-methylpropan-2-yl)piperidin-1-yl)ethan-1-one]
21 | 0.0001 to 10 | 0.0001 to 10 | > 10 | 0.0001 to 10 | OC(c1cc(Cl)cc2[nH]ncc12)C1CCCCC1 (stereo not shown) [Compound P-0173, (6-chloro-1H-indazol-4-yl)(cyclohexyl)methanol]
22 | 0.0001 to 10 | 0.0001 to 10 | 0.0001 to 10 | 0.0001 to 10 | CC(C)(C1CCOCC1)C(O)c1cc(Cl)cc2[nH]ncc12 (stereo not shown) [Compound P-0174, 1-(6-chloro-1H-indazol-4-yl)-2-methyl-2-(tetrahydro-2H-pyran-4-yl)propan-1-ol]
23 | 0.0001 to 10 | 0.0001 to 10 | 0.0001 to 10 | 0.0001 to 10 | CC(C)(C1CCN(C(=O)NCC(F)(F)F)CC1)C(O)c1cc(Cl)cc2cn[nH]c12 (stereo not shown) [Compound P-0175, 4-(1-(5-chloro-1H-indazol-7-yl)-1-hydroxy-2-methylpropan-2-yl)-N-(2,2,2-trifluoroethyl)piperidine-1-carboxamide]
24 | 0.0001 to 10 | 0.0001 to 10 | 0.0001 to 10 | 0.0001 to 10 | CC(C)(C1CCN(C(=O)NC2CC2)CC1)C(O)c1cc(Cl)cc2cn[nH]c12 (stereo not shown) [Compound P-0176, 4-(1-(5-chloro-1H-indazol-7-yl)-1-hydroxy-2-methylpropan-2-yl)-N-cyclopropylpiperidine-1-carboxamide]
25 | 0.0001 to 10 | 0.0001 to 10 | 0.0001 to 10 | 0.0001 to 10 | CC(C)(C1CCN(C(=O)OCC(F)(F)F)CC1)C(O)c1cc(Cl)cc2cn[nH]c12 (stereo not shown) [Compound P-0177, 2,2,2-trifluoroethyl 4-(1-(5-chloro-1H-indazol-7-yl)-1-hydroxy-2-methylpropan-2-yl)piperidine-1-carboxylate]

Source: US10508085B2, “Compounds and methods for IDO and TDO modulation, and indications therefor” (Plexxikon Inc., priority 2016, dated 2019)
